Measurements as given in ChEMBL document CHEMBL4359816, “Discovery and Optimization of Quinolinone Derivatives as Potent, Selective, and Orally Bioavailable Mutant Isocitrate Dehydrogenase 1 (mIDH1) Inhibitors” (J Med Chem, 2019).
Values after ≈ are worked out from the molar mass of the structure shown.

Experiments:
[1] = Metabolic stability in mouse liver microsomes assessed as compound remaining after 30 mins; assay type: ADME, Microsome; conditions: read-out: Stability
[2] = target: T1, Isocitrate dehydrogenase [NADP] cytoplasmic (Homo sapiens, UniProt O75874, R132C); assay: Inhibition of human Myc-DDK-tagged IDH1 R132C mutant assessed as reduction in NADPH consumption pre-incubated for 15 mins followed by alpha-ketoglutarate substrate and NADPH addition after 45 mins by diaphorase and resazurin dye based assay
[3] = Metabolic stability in human liver microsomes assessed as compound remaining after 30 mins; assay type: ADME, Microsome; conditions: read-out: Stability
[4] = Kinetic solubility of the compound; assay type: physicochemical; conditions: read-out: Kinetic_solubility
[5] = target: T1, Isocitrate dehydrogenase [NADP] cytoplasmic; assay: Inhibition of IDH1 R132C mutant in human HCT116 cells assessed as reduction in 2-HG levels after 24 hrs by RapidFire high-throughput mass spectrometry assay; assay type: cell-based
[6] = Octanol/aqueous buffer partition coefficient, log D of the compound at pH 7.4; assay type: physicochemical
[7] = Metabolic stability in rat liver microsomes assessed as compound remaining after 30 mins; assay type: ADME, Microsome; conditions: read-out: Stability

T1 sequence (O75874 2-414 R132C limits assumed): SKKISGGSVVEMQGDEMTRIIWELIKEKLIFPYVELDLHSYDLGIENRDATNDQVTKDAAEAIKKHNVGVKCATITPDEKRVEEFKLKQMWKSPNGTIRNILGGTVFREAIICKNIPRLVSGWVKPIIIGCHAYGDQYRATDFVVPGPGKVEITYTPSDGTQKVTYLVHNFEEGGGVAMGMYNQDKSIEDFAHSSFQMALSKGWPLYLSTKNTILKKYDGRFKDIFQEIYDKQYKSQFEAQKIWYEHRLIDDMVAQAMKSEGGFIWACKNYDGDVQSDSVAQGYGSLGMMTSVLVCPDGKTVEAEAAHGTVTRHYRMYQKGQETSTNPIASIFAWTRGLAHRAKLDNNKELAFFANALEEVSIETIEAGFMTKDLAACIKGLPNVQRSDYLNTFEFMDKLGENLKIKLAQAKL

remaining at 0.5 h [1] [%]	IC50 [2] [nM]	remaining at 0.5 h [3] [%]	solubility kinetic [4] [µM]	IC50 [5] [nM]	logD [6]	remaining at 0.5 h [7] [%]	Structure (SMILES)
2.4	3710	0	< 0.1				COc1cc(NCc2cc3cc(Cl)cc(OCCN4CCOCC4)c3[nH]c2=O)ccc1C#N
89		76	< 0.1				COc1cc(NCc2cc3cc(C(F)(F)F)ccc3[nH]c2=O)ccc1C#N
48.8	5870	6.3	0.72 (≈ 0.326 µg/mL)				COc1cc(NCc2cc3cc(Cl)c(OC[C@@H]4CCCN4C)cc3[nH]c2=O)ccc1C#N
14.3	2670	2.5	0.53 (≈ 0.247 µg/mL)				COc1cc(NCc2cc3cc(Cl)c(OCCN4CCCC4=O)cc3[nH]c2=O)ccc1C#N
13.1	932	1.1	0.385 (≈ 0.181 µg/mL)				COc1cc(NCc2cc3cc(Cl)c(OCCN4CCOCC4)cc3[nH]c2=O)ccc1C#N
59		80	< 0.1				COc1cc(NCc2cc3cc(Cl)ccc3[nH]c2=O)cc(OC)c1C#N
4.6		35	6.13 (≈ 1.87 µg/mL)				COc1cc(NCc2cc3ccccc3[nH]c2=O)ccc1C#N
10.7	1280	0	1.35 (≈ 0.63 µg/mL)				COc1cc(NCc2cc3cc(Cl)c(OCC4CCCCN4C)cc3[nH]c2=O)ccc1C#N (configuration not stated)
89		100	8 (≈ 2.71 µg/mL)				Cc1nc(N[C@H](C)c2cc3cc(Cl)ccc3[nH]c2=O)ccc1C#N
71	111	75	4.1 (≈ 1.45 µg/mL)	213	3.67		COc1cc(N[C@@H](C)c2cc3cc(Cl)ccc3[nH]c2=O)ccc1C#N
27.9		17.6	0.04 (≈ 0.0151 µg/mL)				COc1cc(NCc2cc3cc(C)c(C)cc3[nH]c2=O)ccc1-n1cnnn1
52.7	317	32.7	< 0.01				COc1cc(NCc2cc3cc(Cl)c(OCc4cc(C)n(C)n4)cc3[nH]c2=O)ccc1C#N
100		94	< 0.1				N#Cc1ccc(NCc2cc3cc(Cl)ccc3[nH]c2=O)nc1C(F)(F)F
100		100	15.6 (≈ 5.53 µg/mL)		3.38		COc1cc(N[C@@H](C)c2cc3cc(Cl)ccc3[nH]c2=O)ncc1C#N
29		78	< 0.1				CCOc1cc(NCc2cc3cc(Cl)ccc3[nH]c2=O)ccc1C#N
17.8		9.6	< 0.01				COc1cc(NCc2cc3ccc(C)cc3[nH]c2=O)ccc1-n1cnnn1
	184	89	1.2 (≈ 0.449 µg/mL)	259		100	COc1nc(N[C@@H](C)c2cc3cc(Cl)c(F)cc3[nH]c2=O)ncc1C#N
39		89	0.18 (≈ 0.0692 µg/mL)				COc1cc(NCc2cc3cc(Br)ccc3[nH]c2=O)ccc1C#N
53		65	0.21 (≈ 0.065 µg/mL)				N#Cc1ccc(NCc2cc3cc(Cl)ccc3[nH]c2=O)cc1
	305	93	0.4 (≈ 0.158 µg/mL)	195		68	COc1nc(N[C@@H](C)c2cc3cc(Cl)c(C4CC4)cc3[nH]c2=O)ncc1C#N
81		100	32.5 (≈ 12.8 µg/mL)				COc1cc(NCc2cc3cc(Cl)ccc3[nH]c2=O)ccc1S(C)(=O)=O
0.49		1.2	1.33 (≈ 0.425 µg/mL)				COc1cc(NCc2cc3cc(C)ccc3[nH]c2=O)ccc1C#N
78.8	5100	4.3	0.41 (≈ 0.186 µg/mL)				COc1cc(NCc2cc3cc(Cl)c(OC4CCN(C)CC4)cc3[nH]c2=O)ccc1C#N
	3480						COc1cc(NCc2cc3cc(Cl)cc(OCc4ccccn4)c3[nH]c2=O)ccc1C#N
57		82					O=c1[nH]c2ccc(Cl)cc2cc1CNc1ccc(-c2csnn2)cc1
10.5		21.6	0.67 (≈ 0.225 µg/mL)				COc1ccc2[nH]c(=O)c(CNc3ccc(C#N)c(OC)c3)cc2c1
96	606	100	12.2 (≈ 4.13 µg/mL)				Cc1nc(NC(C)c2cc3cc(Cl)ccc3[nH]c2=O)ccc1C#N (racemic)

remaining at 0.5 h [1] [%]	IC50 [2] [nM]	remaining at 0.5 h [3] [%]	solubility kinetic [4] [µM]	IC50 [5] [nM]	logD [6]	remaining at 0.5 h [7] [%]	Structure (SMILES)
69.4		88	0.93 (≈ 0.324 µg/mL)				COc1cc(NCc2cc3ccccc3[nH]c2=O)ccc1-n1cnnn1
3.9		6	< 0.1				COc1cc(NCc2cc3cc(C(C)(C)C)ccc3[nH]c2=O)ccc1C#N
49		75	< 0.1				Cc1cc(NCc2cc3cc(Cl)ccc3[nH]c2=O)ccc1C#N
42.3		30.8	< 0.01				COc1cc(NCc2cc3cc(C)ccc3[nH]c2=O)ccc1-n1cnnn1
75		91	0.42 (≈ 0.131 µg/mL)				N#Cc1ccc(NCc2cc3cc(Cl)ccc3[nH]c2=O)nc1
85		75	20.9 (≈ 6.81 µg/mL)				N#Cc1ccc(NCc2cc3cc(Cl)ccc3[nH]c2=O)cc1O
85		100	1.2 (≈ 0.44 µg/mL)				Cc1nnnn1-c1ccc(NCc2cc3cc(Cl)ccc3[nH]c2=O)cc1
	53	100	< 0.1	54		100	COc1nc(N[C@@H](C)c2cc3cc(Cl)c(OCC4CC4)cc3[nH]c2=O)ncc1C#N
	43	97	1.5 (≈ 0.694 µg/mL)	22		77	COc1nc(N[C@@H](C)c2cc3cc(Cl)c(OCc4ccccn4)cc3[nH]c2=O)ncc1C#N
75		99	0.8 (≈ 0.26 µg/mL)				Cc1cc(NCc2cc3cc(Cl)ccc3[nH]c2=O)ncc1C#N
93		98	1.57 (≈ 0.551 µg/mL)				O=c1[nH]c2ccc(Cl)cc2cc1CNc1ccc(-n2ccnc2)cc1
94	183	98	5.7 (≈ 1.93 µg/mL)	269	3.74		Cc1nc(N[C@@H](C)c2cc3cc(Cl)ccc3[nH]c2=O)ccc1C#N
2.1		79	< 0.1				COc1cc(C#N)ccc1NCc1cc2cc(Cl)ccc2[nH]c1=O
72		72	< 0.1				N#Cc1ccc(NCc2cc3cc(Cl)ccc3[nH]c2=O)cc1OC(F)(F)F
67		81	< 0.1				Cc1nc(NC(C)(C)c2cc3cc(Cl)ccc3[nH]c2=O)ccc1C#N
60	1020	100	4.8 (≈ 1.7 µg/mL)	338	2.5		COc1nc(C#N)ccc1N[C@@H](C)c1cc2cc(Cl)ccc2[nH]c1=O
	26	100	0.43 (≈ 0.178 µg/mL)	104		90	COc1nc(N[C@@H](C)c2cc3cc(Cl)c(OC(C)C)cc3[nH]c2=O)ncc1C#N
77		91	< 0.1				Cc1nc(NC2(c3cc4cc(Cl)ccc4[nH]c3=O)CC2)ccc1C#N
0.6		76	0.88 (≈ 0.264 µg/mL)				Cc1ccnc(NCc2cc3cc(Cl)ccc3[nH]c2=O)c1
73.4	225	30	< 0.1				COc1cc(NCc2cc3cc(Cl)c(OCc4ccccn4)cc3[nH]c2=O)ccc1C#N
94.9	667	1	< 0.1				COc1cc2[nH]c(=O)c(CNc3ccc(C#N)c(OC)c3)cc2cc1Cl
3.4	88600	53	< 0.1				COc1cc(NCc2cc3cc(Cl)cc(OC)c3[nH]c2=O)ccc1C#N
	6250		1 (≈ 0.427 µg/mL)				COc1cc(NCc2cc3cc(Cl)c(OCCN(C)C)cc3[nH]c2=O)ccc1C#N
89.9		93.9	< 0.01				COc1cc(NCc2cc3cc(Cl)ccc3[nH]c2=O)ccc1-n1cnnn1
	190	82	0.08 (≈ 0.0284 µg/mL)	92	3.47		COc1nc(N[C@@H](C)c2cc3cc(Cl)ccc3[nH]c2=O)ccc1C#N
46		81	3.32 (≈ 1.07 µg/mL)				COc1cc(NCc2cc3cc(F)ccc3[nH]c2=O)ccc1C#N
22		63.7	< 0.01				COc1cc(NCc2cc3cc(Cl)ccc3n(C)c2=O)ccc1-n1cnnn1

Structure (SMILES)	remaining at 0.5 h [1] [%]	IC50 [2] [nM]	remaining at 0.5 h [3] [%]	solubility kinetic [4] [µM]	IC50 [5] [nM]	logD [6]	remaining at 0.5 h [7] [%]
N#Cc1ccc(NCc2cc3cc(Cl)ccc3[nH]c2=O)cc1F	49		100	< 0.1			
N#Cc1ccc(NCc2cc3cc(Cl)ccc3[nH]c2=O)cc1C(F)(F)F	100		100	< 0.1			
